Eleven molecules from ChEMBL document CHEMBL1201862, “PubChem BioAssay data set” (2004) can be followed below.

Each structure is given as a SMILES string. Active and inactive are the calls of the source.

The test system of one experiment is CHO. Briefly: CHO cell viability loss, potency – luminescence, cytotoxicity control for TLR9-MyD88 binding inhibitor project, dose response (AID 588339).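 Also: CHO cells stably coexpressing TLR9 and MyD88 fusions from primary screen; compound exposure lasted 48 hours before viability readout.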 The experiment is classed as functional, cell-based, hamster. The following applies: Cricetulus griseus.
The target of experiment [1] is T1, RNA-binding protein pos-1 (Caenorhabditis elegans, UniProt G5EF15).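 Also: purified POS-1 fused to maltose binding protein made in E. coli; potency of compounds blocking POS-1 binding to fluorescent RNA.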
T1 sequence (G5EF15 whole entry): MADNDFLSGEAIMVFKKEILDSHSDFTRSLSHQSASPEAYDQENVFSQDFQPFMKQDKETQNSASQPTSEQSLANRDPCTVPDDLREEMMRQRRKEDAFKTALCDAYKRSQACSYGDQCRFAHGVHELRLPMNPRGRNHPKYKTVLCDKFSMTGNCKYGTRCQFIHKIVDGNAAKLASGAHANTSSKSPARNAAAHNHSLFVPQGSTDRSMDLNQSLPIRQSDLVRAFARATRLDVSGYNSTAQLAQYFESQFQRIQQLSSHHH
Briefly: disruptors of C. elegans POS-1 RNA interaction – biochemical, fluorescence polarization, dose response (AID 1964). (In general: In fluorescence polarisation assays a small probe gives low polarisation when free and higher when bound to something large.)

The target of experiment [2] is T2, Zinc finger protein mex-5 (Caenorhabditis elegans, UniProt Q9XUB2).
T2 sequence (Q9XUB2 whole entry): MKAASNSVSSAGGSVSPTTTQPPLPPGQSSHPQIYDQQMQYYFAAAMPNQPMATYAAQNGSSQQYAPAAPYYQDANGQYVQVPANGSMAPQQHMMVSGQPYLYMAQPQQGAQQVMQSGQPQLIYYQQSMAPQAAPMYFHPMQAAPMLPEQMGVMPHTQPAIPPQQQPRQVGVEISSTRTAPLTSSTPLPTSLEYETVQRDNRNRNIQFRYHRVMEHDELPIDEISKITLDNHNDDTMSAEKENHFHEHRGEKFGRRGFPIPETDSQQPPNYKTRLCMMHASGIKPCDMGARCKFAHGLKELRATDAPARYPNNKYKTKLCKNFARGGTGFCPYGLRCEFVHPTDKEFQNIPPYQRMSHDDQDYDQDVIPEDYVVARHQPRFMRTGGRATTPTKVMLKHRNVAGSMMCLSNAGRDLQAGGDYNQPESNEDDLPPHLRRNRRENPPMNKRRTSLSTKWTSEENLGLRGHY
Briefly: potency of MEX-5 RNA-binding blockers – biochemical, C. elegans, fluorescence polarization, dose response (AID 1960).

Experiment [3] deals with T3, Corticotropin-releasing factor receptor 2/Corticotropin-releasing factor-binding protein (Homo sapiens, UniProt P24387+Q13324).
T3 sequence (Q13324 whole entry): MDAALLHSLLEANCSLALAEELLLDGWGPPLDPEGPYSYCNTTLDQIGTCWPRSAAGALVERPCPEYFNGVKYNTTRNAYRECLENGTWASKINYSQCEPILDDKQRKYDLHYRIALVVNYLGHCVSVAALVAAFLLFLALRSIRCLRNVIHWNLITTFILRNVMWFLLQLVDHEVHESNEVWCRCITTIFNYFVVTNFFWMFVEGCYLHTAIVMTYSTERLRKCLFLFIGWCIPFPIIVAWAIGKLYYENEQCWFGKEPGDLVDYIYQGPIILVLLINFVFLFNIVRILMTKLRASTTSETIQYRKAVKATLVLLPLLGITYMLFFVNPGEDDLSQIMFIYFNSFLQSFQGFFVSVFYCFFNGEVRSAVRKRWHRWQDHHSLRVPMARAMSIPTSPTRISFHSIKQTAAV
T3 sequence (P24387 whole entry): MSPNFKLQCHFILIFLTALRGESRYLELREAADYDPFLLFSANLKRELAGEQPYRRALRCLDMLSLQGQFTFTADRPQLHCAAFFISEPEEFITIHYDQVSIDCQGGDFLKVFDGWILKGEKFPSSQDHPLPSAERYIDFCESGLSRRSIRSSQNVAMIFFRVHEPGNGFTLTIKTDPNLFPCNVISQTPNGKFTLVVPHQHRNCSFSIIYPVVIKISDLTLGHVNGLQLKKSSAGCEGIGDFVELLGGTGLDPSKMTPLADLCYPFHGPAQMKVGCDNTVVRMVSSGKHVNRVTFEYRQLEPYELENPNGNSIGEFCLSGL
As to the kind of experiment: activators of CRF receptor 2 with binding protein – uHTS hits, confirmation (AID 602473). It counts as functional. The following applies: read-out: EC50_Mean.

The target of a further experiment is Beta Lactamase (Pseudomonas aeruginosa, UniProt Q932Y6). As to the kind of experiment: BLA reporter interference, concentration series – BLA reporter cells, FRET fluorescence, artefact control for TLR9-MyD88 binding inhibitor project, dose response (AID 588341).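 Also: cell based assay in CHO-K1 cells stably expressing beta-lactamase.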 It counts as cell-based.
Beta Lactamase, sequence (Q932Y6 whole entry): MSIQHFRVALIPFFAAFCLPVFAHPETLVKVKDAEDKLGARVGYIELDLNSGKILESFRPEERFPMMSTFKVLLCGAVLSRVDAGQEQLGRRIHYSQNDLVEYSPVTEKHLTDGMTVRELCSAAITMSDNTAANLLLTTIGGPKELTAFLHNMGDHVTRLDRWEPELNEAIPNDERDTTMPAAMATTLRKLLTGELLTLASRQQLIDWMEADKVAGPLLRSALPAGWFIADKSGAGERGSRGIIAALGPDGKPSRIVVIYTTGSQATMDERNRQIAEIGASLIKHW
Experiment [4] deals with T4, Interleukin-8 (Homo sapiens, UniProt P10145).
T4 sequence (P10145 whole entry): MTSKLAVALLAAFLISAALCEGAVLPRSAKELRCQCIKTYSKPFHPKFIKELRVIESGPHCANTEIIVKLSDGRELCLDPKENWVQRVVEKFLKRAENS
Briefly: Dose Response confirmation of uHTS small molecule hits for cystic fibrosis induced NFkb Inhibitors in a PAF-induced IL8 counterscreen. It counts as functional. The note with it: read-out: IC50_Mean. In general terms: Counterscreens check selectivity or assay interference.

The target in experiment [5] is T4, Interleukin-8. As to the kind of experiment: Dose Response confirmation of uHTS small molecule hits for cystic fibrosis induced NFkb Inhibitors in a TNFa-induced IL8 counterscreen. It counts as functional. The following applies: read-out: IC50_Mean.
Experiment [6] deals with T5, Apoptotic protease-activating factor 1 (Homo sapiens, UniProt O14727).
T5 sequence (O14727 whole entry): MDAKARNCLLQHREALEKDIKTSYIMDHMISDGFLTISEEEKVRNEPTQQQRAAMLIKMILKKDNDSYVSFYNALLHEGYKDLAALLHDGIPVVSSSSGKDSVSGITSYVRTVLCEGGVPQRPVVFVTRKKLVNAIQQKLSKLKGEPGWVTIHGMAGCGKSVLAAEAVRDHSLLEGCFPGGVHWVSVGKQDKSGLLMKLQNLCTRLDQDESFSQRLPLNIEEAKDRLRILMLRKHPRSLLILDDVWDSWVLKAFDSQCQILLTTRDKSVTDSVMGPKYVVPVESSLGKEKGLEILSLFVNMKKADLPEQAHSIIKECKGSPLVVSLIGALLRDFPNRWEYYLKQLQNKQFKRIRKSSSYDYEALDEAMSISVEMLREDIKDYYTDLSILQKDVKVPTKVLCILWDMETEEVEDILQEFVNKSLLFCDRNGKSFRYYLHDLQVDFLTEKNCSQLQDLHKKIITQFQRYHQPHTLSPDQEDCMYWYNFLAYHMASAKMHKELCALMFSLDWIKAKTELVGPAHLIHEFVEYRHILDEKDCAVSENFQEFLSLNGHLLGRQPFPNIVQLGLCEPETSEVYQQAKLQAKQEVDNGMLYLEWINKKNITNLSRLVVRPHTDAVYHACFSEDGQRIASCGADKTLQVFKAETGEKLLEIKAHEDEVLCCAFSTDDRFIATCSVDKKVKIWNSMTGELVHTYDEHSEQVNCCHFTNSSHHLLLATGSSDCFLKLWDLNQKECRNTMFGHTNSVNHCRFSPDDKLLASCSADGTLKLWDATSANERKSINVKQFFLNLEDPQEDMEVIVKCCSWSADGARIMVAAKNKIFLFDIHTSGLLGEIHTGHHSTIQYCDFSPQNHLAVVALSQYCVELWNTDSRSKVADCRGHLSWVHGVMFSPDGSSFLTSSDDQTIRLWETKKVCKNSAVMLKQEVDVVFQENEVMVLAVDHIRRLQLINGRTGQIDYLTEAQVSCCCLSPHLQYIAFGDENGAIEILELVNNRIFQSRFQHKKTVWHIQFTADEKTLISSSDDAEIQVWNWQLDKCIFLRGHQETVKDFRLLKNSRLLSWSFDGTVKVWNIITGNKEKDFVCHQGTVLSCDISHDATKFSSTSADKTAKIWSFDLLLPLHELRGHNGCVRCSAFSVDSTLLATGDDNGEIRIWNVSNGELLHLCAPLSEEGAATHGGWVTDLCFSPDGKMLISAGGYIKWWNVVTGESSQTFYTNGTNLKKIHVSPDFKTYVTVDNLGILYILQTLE
As to the kind of experiment: SAR analysis of small molecule inhibitors of Apaf-1 in a Fluorescent assay. The note with it: read-out: IC50_Mean. The experiment is classed as functional.

In experiment [7] the target is T6, Low molecular weight phosphotyrosine protein phosphatase (Homo sapiens, UniProt P24666).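 Also: Dose-response confirmation assay measuring inhibition of LMPTP enzyme activity by fluorescence intensity read-out.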
T6 sequence (P24666 whole entry): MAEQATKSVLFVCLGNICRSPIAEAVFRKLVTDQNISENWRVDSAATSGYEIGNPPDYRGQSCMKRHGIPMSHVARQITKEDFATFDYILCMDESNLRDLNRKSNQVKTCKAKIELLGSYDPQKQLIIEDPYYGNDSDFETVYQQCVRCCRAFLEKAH
The experiment is classed as functional. The following applies: read-out: IC50_Mean.

Experiment [8] concerns the target T5, Apoptotic protease-activating factor 1. Briefly: SAR analysis of small molecule Activators of Apaf-1 in a Fluorescent assay. The following applies: read-out: EC50_Mean. It counts as functional.
For experiment [9], the target named is T7, Probable nicotinate-nucleotide adenylyltransferase (Staphylococcus aureus (strain N315), UniProt P65502). It counts as functional, Staphylococcus aureus subsp. aureus N315. The note with it: read-out: IC50_Mean.
T7 sequence (P65502 whole entry): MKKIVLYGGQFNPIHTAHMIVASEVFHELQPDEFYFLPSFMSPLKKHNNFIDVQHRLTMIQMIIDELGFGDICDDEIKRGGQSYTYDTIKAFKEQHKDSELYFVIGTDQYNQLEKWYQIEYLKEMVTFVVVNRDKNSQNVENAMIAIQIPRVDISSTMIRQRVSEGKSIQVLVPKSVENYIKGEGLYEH
A further experiment relates to Vero. As to the kind of experiment: cells. The experiment is classed as functional. The following applies: Chlorocebus sabaeus.
In experiment [10] the target is T7, Probable nicotinate-nucleotide adenylyltransferase. The experiment is classed as functional, Staphylococcus aureus subsp. aureus N315.
Experiment [11] deals with T8, ATP-dependent translocase ABCB1 (Homo sapiens, UniProt P08183). As to the kind of experiment: inhibition of BCRP-mediated JC-1 efflux – Ig-MXP3 cells, flow cytometry, set 2, dose response (AID 504566).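 Also: flow cytometry median green fluorescence of retained JC-1 dye; potency of efflux pump inhibition measured as rising substrate retention.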 The note with it: read-out: EC50_MICROM_. The experiment is classed as functional. Background: A flow cytometer gives signals particle by particle.
T8 sequence (P08183 whole entry): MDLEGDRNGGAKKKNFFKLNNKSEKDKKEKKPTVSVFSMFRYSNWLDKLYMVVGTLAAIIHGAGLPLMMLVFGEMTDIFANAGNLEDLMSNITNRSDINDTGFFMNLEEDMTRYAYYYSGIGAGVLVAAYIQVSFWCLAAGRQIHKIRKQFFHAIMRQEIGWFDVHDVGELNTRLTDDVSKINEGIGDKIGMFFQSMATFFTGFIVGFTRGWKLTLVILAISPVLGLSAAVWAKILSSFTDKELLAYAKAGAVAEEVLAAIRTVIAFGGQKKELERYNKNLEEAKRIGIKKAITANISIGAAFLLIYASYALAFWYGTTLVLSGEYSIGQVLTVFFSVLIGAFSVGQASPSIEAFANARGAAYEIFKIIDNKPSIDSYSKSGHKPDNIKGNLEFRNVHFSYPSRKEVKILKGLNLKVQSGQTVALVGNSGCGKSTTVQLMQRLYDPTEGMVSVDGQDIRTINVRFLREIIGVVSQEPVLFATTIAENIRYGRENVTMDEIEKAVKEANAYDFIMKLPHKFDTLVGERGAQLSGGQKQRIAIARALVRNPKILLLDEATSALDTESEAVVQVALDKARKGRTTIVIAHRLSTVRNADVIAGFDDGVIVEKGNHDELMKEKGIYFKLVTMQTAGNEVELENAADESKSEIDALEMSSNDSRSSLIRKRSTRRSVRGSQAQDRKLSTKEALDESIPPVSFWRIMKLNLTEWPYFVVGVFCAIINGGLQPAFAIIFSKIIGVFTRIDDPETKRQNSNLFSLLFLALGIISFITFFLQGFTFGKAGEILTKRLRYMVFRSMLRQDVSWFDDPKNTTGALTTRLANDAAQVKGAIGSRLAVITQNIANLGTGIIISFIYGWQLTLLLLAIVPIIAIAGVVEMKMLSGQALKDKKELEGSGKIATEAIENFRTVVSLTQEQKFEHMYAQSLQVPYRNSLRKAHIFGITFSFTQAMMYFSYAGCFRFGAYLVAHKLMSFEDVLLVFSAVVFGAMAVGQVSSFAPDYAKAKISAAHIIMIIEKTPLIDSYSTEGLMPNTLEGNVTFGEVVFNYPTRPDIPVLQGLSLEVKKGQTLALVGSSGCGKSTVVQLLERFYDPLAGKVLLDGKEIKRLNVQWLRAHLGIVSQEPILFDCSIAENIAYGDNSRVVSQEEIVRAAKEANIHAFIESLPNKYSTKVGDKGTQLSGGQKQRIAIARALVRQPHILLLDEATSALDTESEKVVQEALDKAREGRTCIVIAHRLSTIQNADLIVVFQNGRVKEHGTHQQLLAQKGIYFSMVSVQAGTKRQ
In experiment [12] the target is T8, ATP-dependent translocase ABCB1. Briefly: P-gp JC-1 efflux blockade concentration-response – Jurkat-DNR cells, flow cytometry, set 2, dose response (AID 504569).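 Also: potency of pump inhibitors that raise cellular JC-1 green fluorescence up to the nicardipine level.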 It counts as functional. The note with it: read-out: EC50_MICROM_.
The nature of experiment [13]: intracellular Trypanosoma cruzi inhibitors in host cells – cell-based, plate reader, cherry-pick samples, set 3, dose response (AID 651818).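 Also: compounds incubated with infected cells for about four days.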 The experiment is classed as functional.
The target in experiment [14] is Hepatocyte nuclear factor 4-alpha (Homo sapiens, UniProt P41235). It counts as functional, cell-based.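 Also: biochemical luminescence-based dose-response counterscreen measuring inhibition of HNF4 dimerization, run alongside a screen for blockers of ABHD5–perilipin-5 interaction; split luciferase complementation of HNF4 fusion proteins in cell lysate measuring dimerization.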
Hepatocyte nuclear factor 4-alpha, sequence (P41235 whole entry, the tested form may be a part): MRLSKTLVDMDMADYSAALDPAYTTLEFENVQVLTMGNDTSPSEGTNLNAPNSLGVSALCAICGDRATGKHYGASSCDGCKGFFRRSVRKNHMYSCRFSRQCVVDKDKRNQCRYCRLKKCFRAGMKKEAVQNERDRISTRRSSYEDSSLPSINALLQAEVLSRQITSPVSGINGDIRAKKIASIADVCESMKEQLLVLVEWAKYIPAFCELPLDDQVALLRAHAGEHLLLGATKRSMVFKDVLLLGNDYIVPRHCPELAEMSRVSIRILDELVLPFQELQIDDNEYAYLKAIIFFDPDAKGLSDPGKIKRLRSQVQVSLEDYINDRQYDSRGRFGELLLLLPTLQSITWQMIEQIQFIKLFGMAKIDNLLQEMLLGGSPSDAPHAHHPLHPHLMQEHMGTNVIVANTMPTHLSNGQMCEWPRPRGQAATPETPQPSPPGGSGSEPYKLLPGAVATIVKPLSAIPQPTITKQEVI
For experiment [15], the target named is T9, Adenosylmethionine-8-amino-7-oxononanoate aminotransferase (Mycobacterium tuberculosis, UniProt P9WQ81).
T9 sequence (P9WQ81 whole entry): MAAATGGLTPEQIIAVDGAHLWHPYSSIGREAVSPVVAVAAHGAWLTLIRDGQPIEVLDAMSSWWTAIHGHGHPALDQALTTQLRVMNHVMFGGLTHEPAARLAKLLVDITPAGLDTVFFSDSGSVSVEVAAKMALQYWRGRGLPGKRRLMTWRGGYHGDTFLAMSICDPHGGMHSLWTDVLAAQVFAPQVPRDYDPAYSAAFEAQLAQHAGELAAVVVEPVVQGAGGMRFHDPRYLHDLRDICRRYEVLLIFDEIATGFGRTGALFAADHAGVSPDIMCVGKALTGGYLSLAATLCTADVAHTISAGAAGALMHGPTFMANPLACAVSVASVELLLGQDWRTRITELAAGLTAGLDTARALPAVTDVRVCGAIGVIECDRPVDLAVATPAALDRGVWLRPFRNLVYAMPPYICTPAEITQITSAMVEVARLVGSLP
Briefly: Mycobacterium tuberculosis BioA enzyme inhibitor Measured in Biochemical System Using Plate Reader - 2163-02_Inhibitor_Dose_CherryPick_Activity. The experiment is classed as functional, Mycobacterium tuberculosis UT205.

A short description of experiment [16]: HEK293 cell viability loss – plate reader, cherry-pick, cytotoxicity control, dose response (AID 651899). It counts as functional, cell-based.

Regarding `COc1ccc(C(=O)c2sc3nc(C)cc(-c4cccs4)c3c2N)cc1`, the IC50 in the experiment on CHO is > 49.7 µM (inactive); at Beta Lactamase, 3.85 µM (active). Also, the EC50 in experiment [1] was 16.9 µM (active); in experiment [2], 11 µM (active); in [3], 6.58 µM (active).
For the molecule `O=C(Nc1ccc(N2CCN(C(=O)c3ccccc3F)CC2)cc1)c1cncc(Br)c1`, the figures for the IC50 at Interleukin-8 [4] and at Interleukin-8 [5] were 6.77 µM (active) and > 79 µM (inactive), respectively.
Take `O=C(Nc1ccc2nc(-c3ccc(Br)o3)[nH]c2c1)c1cccs1`: the IC50 in experiment [6] is > 100 µM (inactive).
With `CCn1cc(C(=O)O)c(=O)c2cc(F)c(N3CCN(C(=S)NC(=O)c4c(OC)cccc4OC)CC3)cc21`, the IC50 in [7] was 14 µM (active).
With `O=C(O)[C@@H]1COC(c2ccc(F)cc2F)=N1`, in experiment [8], the EC50 is > 100 µM (inactive).
In general, CC50 refers to the concentration that lowers cell viability or growth by half. For the molecule `COc1cc(/C=C/c2ccc3c(Br)cc(Br)c(O)c3n2)ccc1O`, the IC50 is 7.79 µM (active) with CHO, 44.9 µM (active) in [9], 7.68 µM (active) at Beta Lactamase and 10.1 µM (active) in experiment [10]. Besides, the CC50 in the experiment on Vero is 13.4 µM (active).
For the molecule `O=C(c1cccnc1)N1CCN(c2cc(-c3ccccc3)nc3cc(-c4cccc(Cl)c4)nn23)CC1`, the results for the EC50 in experiment [11] and in [12] were 0.37 µM (active) and 0.52 µM (active), respectively.
What is called AC50 is the concentration at which the activity in the assay is half-maximal. Turning to `C[C@@H]1CN([C@@H](C)CO)C(=O)Cc2cc(NS(=O)(=O)c3ccc(Cl)cc3)ccc2O[C@@H]1CN(C)Cc1ccc(Cl)c(Cl)c1`, the AC50 in [13] is 5.1 µM (active).
Take `O=C(NC1CCCCC1)C(c1ccccc1)n1c(=O)c(-c2ccco2)nc2ccccc21` (configuration not stated): the IC50 in experiment [14] was 0.817 µM (active).
For the molecule `COc1ccccc1S(=O)(=O)N1CC[C@@H]2[C@H](CO)Nc3ccc(-c4ccccc4)cc3[C@@H]21`, the figures for the AC50 in [15] and in experiment [16] were 16.5 µM (active) and 19.3 µM (active), respectively.
As for `O=C1c2cc(Cl)ccc2-n2c1nc1ccccc1c2=O`, in experiment [6], the IC50 was 60.3 µM (active).
